In patent publication US12479843B2, “Spiro ring-containing quinazoline compounds” (WIGEN BIOMEDICINE TECHNOLOGY (SHANGHAI) CO., LTD., priority 2019, dated 2025):

Key:
H358 cells = assay: Antiproliferative activity against H358 cells (Cell Titer Glow, ultra-low attachment plate); format: cell-based; details: Homo sapiens, NCI-H358, 72 h, 96-well ultra-low attachment plate, three days after addition of compound, Cell Titer Glow
Protocol: 2500 H358 cells were seeded in a 96-well ultra-low attachment plate (corning, 7007). After one day of growth, a serially diluted compound (a maximum concentration of 5 μM, 5-fold dilution, a total of five doses) was added. Three days after the addition of the compound, Cell Titer Glow (Promega, G9681) was added to evaluate pellet growth, and the IC50 value was calculated.

pERK level in H358 cells = assay: pERK and ERK protein content assay in H358 cells (ELISA); format: cell-based; details: Homo sapiens, NCI-H358, compound 1 μM, 24 h, pERK/ERK ratio compared with DMSO group, read-out: Inhibition rate (%) of pERK level
Protocol: H358 cells were seeded in a 24-well plate. After one day of growth, a test compound (at a concentration of 1 μM) was added. After 24 h of action of the compound, the cells were lysed, and the cell lysate was transferred to a 96-well ELISA plate. The levels of pERK and ERK in the lysate were measured using an ELISA kit (abcam 176660). The ratio of pERK to ERK was calculated and compared with that of the DMSO group, and the percentage of inhibition of pERK activity by the compound was calculated.

SMILES	IC50 (H358 cells) [nM]	inhibition at 1 µM (pERK level in H358 cells) [%]
C=CC(=O)N1CC2(CCN(c3nc(N(C)CCN4CC(OC)C4)nc4c(OCC(F)(F)F)c(-c5c(C)ccc6[nH]ncc56)c(C5CC5)cc34)CC2)C1 [Compound 230]	300 to 1000	50 to 90
C=CC(=O)N1CC2(CCN(c3nc(N4CC5(C4)[C@@H](N(C)C)CCN5C)nc4c(OCC(F)(F)F)c(-c5c(C)ccc6[nH]ncc56)c(C5CC5)cc34)CC2)C1 [Compound 277]	< 300	> 90
C=CC(=O)N1CC2(CCN(c3nc(N(C)CCN4CCC4)nc4c(OCC(F)(F)F)c(-c5c(C)ccc6[nH]ncc56)c(C5CC5)cc34)CC2)C1 [Compound 226]	< 300	> 90
C=CC(=O)N1CC2(CCN(c3nc(N(C)CCN4CC(C#N)C4)nc4c(OCC(F)(F)F)c(-c5c(C)ccc6[nH]ncc56)c(C5CC5)cc34)CC2)C1 [Compound 231]	300 to 1000	50 to 90
C=CC(=O)N1CC2(CCN(c3nc(N4CC[C@@H](N5CCC(F)CC5)C4)nc4c(OCC(F)(F)F)c(-c5c(C)ccc6[nH]ncc56)c(C5CC5)cc34)CC2)C1 [Compound 212]	< 300	> 90
C=CC(=O)N1CC2(CCN(c3nc(N4CC(N5C6CCC5CC6)C4)nc4c(OCC(F)(F)F)c(-c5c(C)ccc6[nH]ncc56)c(C5CC5)cc34)CC2)C1 [Compound 270]	< 300	> 90
C=C(F)C(=O)N1CC2(CCN(c3nc(OC4CCN(CCOC)CC4)nc4c(OCC(F)(F)F)c(-c5c(F)ccc6[nH]cnc56)c(C5CC5)cc34)CC2)C1 [Compound 38]	300 to 1000	> 90
C=C(F)C(=O)N1CC2(CCN(c3nc(OC4CC5(CCN(CCOC)CC5)C4)nc4c(OCC(F)(F)F)c(-c5c(C)ccc6[nH]ncc56)c(C5CC5)cc34)CC2)C1 [Compound 132]	< 300	> 90
C=CC(=O)N1CC2(CCN(c3nc(N4CC5(CC(N6CC(C)C6)C5)C4)nc4c(OCC(F)(F)F)c(-c5c(C)ccc6[nH]ncc56)c(C5CC5)cc34)CC2)C1 [Compound 288]	< 300	> 90
C=CC(=O)N1CC2(CCN(c3nc(N4CC[C@H](N5CC[C@@H](C)C5)C4)nc4c(OCC(F)(F)F)c(-c5c(C)ccc6[nH]ncc56)c(C5CC5)cc34)CC2)C1 [Compound 300]	< 300	> 90
C=CC(=O)N1CC2(CCN(c3nc(N4CC5(CCN(C6COC6)CC5)C4)nc4c(OCC(F)(F)F)c(-c5c(C)ccc6[nH]ncc56)c(C5CC5)cc34)CC2)C1 [Compound 89]	< 300	> 90
C=C(F)C(=O)N1CC2(CCN(c3nc(N4CC5(CCN(CCC#N)CC5)C4)nc4c(OCC(F)(F)F)c(-c5c(C)ccc6[nH]ncc56)c(C5CC5)cc34)CC2)C1 [Compound 88]	300 to 1000	50 to 90
C=CC(=O)N1CC2(CCN(c3nc(N4CCC(N5CCCC5)CC4)nc4c(OCC(F)(F)F)c(-c5c(C)ccc6[nH]ncc56)c(C5CC5)cc34)CC2)C1 [Compound 216]	< 300	> 90
C=C(F)C(=O)N1CC2(CCN(c3nc(N4CCC5(CN(CCOC)C5)C4)nc4c(OCC(F)(F)F)c(-c5c(C)ccc6[nH]ncc56)c(C5CC5)cc34)CC2)C1 [Compound 100]	< 300	> 90
C=CC(=O)N1CC2(CCN(c3nc(N4CC(N5CC[C@H](C(C)(C)O)C5)C4)nc4c(OCC(F)(F)F)c(-c5c(C)ccc6[nH]ncc56)c(C5CC5)cc34)CC2)C1 [Compound 253]	300 to 1000	> 90
C=CC(=O)N1CC2(CCN(c3nc(N4CC5(CC(F)C5)C4)nc4c(OCC(F)(F)F)c(-c5c(C)ccc6[nH]ncc56)c(C5CC5)cc34)CC2)C1 [Compound 284]	< 300	> 90

SMILES	IC50 (H358 cells) [nM]	inhibition at 1 µM (pERK level in H358 cells) [%]
C=CC(=O)N1CC2(CCN(c3nc(OC4CCN(CCOC)CC4)nc4c(OCC(F)(F)F)c(-c5c(C)ccc6nc[nH]c(=O)c56)c(C5CC5)cc34)CC2)C1 [Compound 43]	< 300	> 90
C=CC(=O)N1CC2(CCN(c3nc(N(C)CCN(C)C)nc4c(OCC(F)(F)F)c(-c5c(C)ccc6[nH]ncc56)c(C5CC5)cc34)CC2)C1 [Compound 225]	< 300	> 90
C=CC(=O)N1CC2(CCN(c3nc(N4CC5(CN(CC6CC6)C5)C4)nc4c(OCC(F)(F)F)c(-c5c(C)ccc6[nH]ncc56)c(C5CC5)cc34)CC2)C1 [Compound 157]	< 300	> 90
C=CC(=O)N1CC2(CCN(c3nc(N4CC(N5CC(CO)C5)C4)nc4c(OCC(F)(F)F)c(-c5c(C)ccc6[nH]ncc56)c(C5CC5)cc34)CC2)C1 [Compound 243]	< 300	> 90
C=Cc1cc2c(N3CCC4(CC3)CN(C(=O)C(=C)F)C4)nc(OC3CCN(CCOC)CC3)nc2c(OCC)c1-c1c(C)ccc2[nH]ncc12 [Compound 4]	< 300	> 90
C=CC(=O)N1CC2(CCN(c3nc(OC4CCC5(CC4)CN(C)C5)nc4c(OCC(F)(F)F)c(-c5c(C)ccc6[nH]ncc56)c(C5CC5)cc34)CC2)C1 [Compound 135]	300 to 1000	50 to 90
C=C(F)C(=O)N1CC2(CCN(c3nc(OC[C@@H]4COCCN4C)nc4c(OCC(F)(F)F)c(-c5c(C)ccc6[nH]ncc56)c(C5CC5)cc34)CC2)C1 [Compound 116]	300 to 1000	50 to 90
C=C(F)C(=O)N1CC2(CCN(c3nc(OC4CN(C)C4)nc4c(OCC(F)(F)F)c(-c5c(C)ccc6[nH]ncc56)c(C5CC5)cc34)CC2)C1 [Compound 110]	< 300	> 90
C=CC(=O)N1CC2(CCN(c3nc(N4CC(N5CC(F)(F)C5)C4)nc4c(OCC(F)(F)F)c(-c5c(C)ccc6[nH]ncc56)c(C5CC5)cc34)CC2)C1 [Compound 169]	300 to 1000	50 to 90
C=CC(=O)N1CC2(CCN(c3nc(N4CC(N5C[C@H](O)C[C@H]5C)C4)nc4c(OCC(F)(F)F)c(-c5c(C)ccc6[nH]ncc56)c(C5CC5)cc34)CC2)C1 [Compound 260]	< 300	> 90
C=C(F)C(=O)N1CC2(CCN(c3nc(OC4CN(C5COC5)C4)nc4c(OCC(F)(F)F)c(-c5c(C)ccc6[nH]ncc56)c(C5CC5)cc34)CC2)C1 [Compound 112]	300 to 1000	50 to 90
C=C(F)C(=O)N1CC2(CCN(c3nc(N4CC5(CCN(CC(F)(F)F)CC5)C4)nc4c(OCC(F)(F)F)c(-c5c(C)ccc6[nH]ncc56)c(C5CC5)cc34)CC2)C1 [Compound 86]	300 to 1000	50 to 90
C=C(F)C(=O)N1CC2(CCN(c3nc(N4CC5(CCN(CCOC)C5)C4)nc4c(OCC(F)(F)F)c(-c5c(C)ccc6[nH]ncc56)c(C5CC5)cc34)CC2)C1 [Compound 76]	< 300	> 90
C=CC(=O)N1CC2(CCN(c3nc(OC4CCN(CCOC)CC4)nc4c(OCC(F)(F)F)c(-c5c(C)ccc6[nH]ncc56)ccc34)CC2)C1 [Compound 10]	300 to 1000	50 to 90
C=C(C#N)C(=O)N1CC2(CCN(c3nc(OC4CCN(CCOC)CC4)nc4c(OCC(F)(F)F)c(-c5c(C)ccc6[nH]ncc56)c(C5CC5)cc34)CC2)C1 [Compound 18]	300 to 1000	50 to 90
C=CC(=O)N1CC2(CCN(c3nc(N4CC5(C4)[C@H](N(C)C)CCN5C)nc4c(OCC(F)(F)F)c(-c5c(C)ccc6[nH]ncc56)c(C5CC5)cc34)CC2)C1 [Compound 278]	< 300	> 90
